Experimental data reported in publication PMC5458547, “Discovery of first-in-class reversible dual small molecule inhibitors against G9a and DNMTs in hematological malignancies” (Nature Communications, 2017).

How the values were obtained:
Human HDAC6 = target: T1, Human HDAC6 (Homo sapiens, UniProt Q9UBN7); assay: HDAC6 enzyme activity assay; assay type: biochemical
T1 construct: purchased DiscoverX KINOMEscan (kinases); BPS Bioscience (epigenetic targets)

SET7-9 = target: T2, SET7-9 (Homo sapiens, UniProt Q8WTS6); assay: Epigenetics selectivity panel (BPS Bioscience); assay type: biochemical
T2 construct: purchased DiscoverX KINOMEscan (kinases); BPS Bioscience (epigenetic targets)
T2 sequence (Q8WTS6 whole entry): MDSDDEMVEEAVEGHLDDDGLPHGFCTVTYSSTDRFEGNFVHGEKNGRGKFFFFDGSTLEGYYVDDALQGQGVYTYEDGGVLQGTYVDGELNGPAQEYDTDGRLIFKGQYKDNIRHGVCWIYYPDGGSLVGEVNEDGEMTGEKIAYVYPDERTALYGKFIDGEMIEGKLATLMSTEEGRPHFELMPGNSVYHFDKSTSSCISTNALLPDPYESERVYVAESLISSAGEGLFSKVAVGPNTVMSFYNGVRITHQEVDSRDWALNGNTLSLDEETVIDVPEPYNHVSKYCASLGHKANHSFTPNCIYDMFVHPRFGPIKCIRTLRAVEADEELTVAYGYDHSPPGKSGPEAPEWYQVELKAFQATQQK

H23 = assay: Cell proliferation assay (MTS); assay type: cell-based; details: Homo sapiens, NCI-H23; NSCLC
697 = assay: Cell proliferation assay (MTS); assay type: cell-based; details: Homo sapiens; ALL, 48 h
DNMT3A = target: T3, DNMT3A (Homo sapiens, UniProt Q9Y6K1); assay: Epigenetics selectivity panel (BPS Bioscience); assay type: biochemical
T3 construct: purchased BPS Bioscience (contract panel)

PC3 = assay: Cell proliferation assay (MTS); assay type: cell-based; details: Homo sapiens, PC-3; Prostate
PEER = assay: Cell proliferation assay (MTS); assay type: cell-based; details: Homo sapiens; ALL, 48 h
TAF1 = target: T4, TAF1 (Homo sapiens, UniProt P21675); assay: Epigenetics selectivity panel (BPS Bioscience); assay type: binding
T4 construct: purchased DiscoverX KINOMEscan (kinases); BPS Bioscience (epigenetic targets)
T4 sequence (P21675 whole entry): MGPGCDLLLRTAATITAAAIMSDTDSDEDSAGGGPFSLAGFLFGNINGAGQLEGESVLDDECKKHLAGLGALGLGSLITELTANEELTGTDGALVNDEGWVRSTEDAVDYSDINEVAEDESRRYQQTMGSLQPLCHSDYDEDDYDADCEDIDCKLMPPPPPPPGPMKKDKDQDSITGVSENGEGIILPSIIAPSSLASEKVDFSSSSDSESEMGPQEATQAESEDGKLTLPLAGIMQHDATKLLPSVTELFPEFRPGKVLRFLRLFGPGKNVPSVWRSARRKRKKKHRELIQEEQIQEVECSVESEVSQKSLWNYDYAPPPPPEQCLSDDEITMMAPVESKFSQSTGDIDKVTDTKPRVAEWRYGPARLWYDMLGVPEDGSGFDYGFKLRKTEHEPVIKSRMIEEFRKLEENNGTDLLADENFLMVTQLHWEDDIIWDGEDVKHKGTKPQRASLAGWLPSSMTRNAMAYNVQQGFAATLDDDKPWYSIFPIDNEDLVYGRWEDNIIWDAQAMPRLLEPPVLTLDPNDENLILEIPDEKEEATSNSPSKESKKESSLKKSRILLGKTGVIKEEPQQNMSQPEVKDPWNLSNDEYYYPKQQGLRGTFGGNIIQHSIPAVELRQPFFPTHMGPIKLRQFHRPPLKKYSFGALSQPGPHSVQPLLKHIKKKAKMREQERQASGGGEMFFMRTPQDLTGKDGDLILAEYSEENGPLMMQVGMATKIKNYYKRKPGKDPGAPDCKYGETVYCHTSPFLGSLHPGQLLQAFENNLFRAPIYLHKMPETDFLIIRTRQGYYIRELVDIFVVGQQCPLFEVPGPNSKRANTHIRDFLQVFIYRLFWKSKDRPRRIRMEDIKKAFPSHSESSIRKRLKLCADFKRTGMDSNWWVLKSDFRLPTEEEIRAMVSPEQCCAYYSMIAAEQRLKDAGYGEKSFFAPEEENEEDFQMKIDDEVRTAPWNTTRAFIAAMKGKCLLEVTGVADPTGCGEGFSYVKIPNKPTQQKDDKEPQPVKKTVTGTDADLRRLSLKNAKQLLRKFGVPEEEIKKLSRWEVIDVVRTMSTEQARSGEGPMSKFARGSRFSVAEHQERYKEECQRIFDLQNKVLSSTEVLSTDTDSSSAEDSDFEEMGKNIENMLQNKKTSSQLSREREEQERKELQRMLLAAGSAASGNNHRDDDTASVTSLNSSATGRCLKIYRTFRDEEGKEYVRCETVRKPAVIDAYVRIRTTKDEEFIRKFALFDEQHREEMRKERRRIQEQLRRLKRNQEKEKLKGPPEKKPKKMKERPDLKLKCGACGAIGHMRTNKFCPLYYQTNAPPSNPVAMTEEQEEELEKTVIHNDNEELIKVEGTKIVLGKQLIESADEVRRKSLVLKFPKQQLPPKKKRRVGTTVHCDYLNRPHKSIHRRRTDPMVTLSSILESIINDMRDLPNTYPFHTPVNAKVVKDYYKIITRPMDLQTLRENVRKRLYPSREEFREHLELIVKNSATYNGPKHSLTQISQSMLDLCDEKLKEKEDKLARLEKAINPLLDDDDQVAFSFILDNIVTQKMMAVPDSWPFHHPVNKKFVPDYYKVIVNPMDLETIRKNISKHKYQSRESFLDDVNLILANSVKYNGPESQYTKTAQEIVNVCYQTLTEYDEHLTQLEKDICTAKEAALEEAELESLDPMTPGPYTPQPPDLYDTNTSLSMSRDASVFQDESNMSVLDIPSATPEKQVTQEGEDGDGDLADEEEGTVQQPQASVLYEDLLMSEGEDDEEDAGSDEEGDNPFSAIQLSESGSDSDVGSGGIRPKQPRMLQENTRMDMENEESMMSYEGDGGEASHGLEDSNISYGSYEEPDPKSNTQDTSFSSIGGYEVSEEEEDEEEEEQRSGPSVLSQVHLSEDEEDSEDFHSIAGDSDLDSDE

DU145 = assay: Cell proliferation assay (MTS); assay type: cell-based; details: Homo sapiens, DU-145; Prostate
JMJD2B = target: T5, JMJD2B (Homo sapiens, UniProt O94953); assay: Epigenetics selectivity panel (BPS Bioscience); assay type: biochemical
T5 construct: purchased DiscoverX KINOMEscan (kinases); BPS Bioscience (epigenetic targets)

MGH-U3 = assay: Cell proliferation assay (MTS); assay type: cell-based; details: Homo sapiens; Bladder
CAKI-2 = assay: Cell proliferation assay (MTS); assay type: cell-based; details: Homo sapiens, Renal
COLO-205 = assay: Cell proliferation assay (MTS); assay type: cell-based; details: Homo sapiens, Colorectal
EZH2 = target: T6, EZH2 (Homo sapiens, UniProt Q15910); assay: Epigenetics selectivity panel (BPS Bioscience); assay type: biochemical
T6 construct: purchased DiscoverX KINOMEscan (kinases); BPS Bioscience (epigenetic targets)

BRD2(BD1+BD2) = target: T7, BRD2(BD1+BD2) (Homo sapiens, UniProt P25440); assay: Epigenetics selectivity panel (BPS Bioscience); assay type: binding
T7 construct: purchased DiscoverX KINOMEscan (kinases); BPS Bioscience (epigenetic targets)
T7 sequence (P25440 65-459 limits assumed): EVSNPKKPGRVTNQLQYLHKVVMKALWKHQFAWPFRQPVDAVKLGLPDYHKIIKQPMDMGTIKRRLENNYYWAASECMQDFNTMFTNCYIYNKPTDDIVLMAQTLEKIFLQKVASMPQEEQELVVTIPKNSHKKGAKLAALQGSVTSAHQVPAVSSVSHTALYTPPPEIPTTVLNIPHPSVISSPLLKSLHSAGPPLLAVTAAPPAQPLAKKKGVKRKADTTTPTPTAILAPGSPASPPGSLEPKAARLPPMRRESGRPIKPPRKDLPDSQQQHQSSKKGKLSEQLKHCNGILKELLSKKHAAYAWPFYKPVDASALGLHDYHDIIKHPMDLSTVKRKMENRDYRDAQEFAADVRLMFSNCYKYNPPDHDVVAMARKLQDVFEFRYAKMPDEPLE

MM1.R = assay: Cell proliferation assay (MTS); assay type: cell-based; details: Homo sapiens, MM.1R
PRMT5 = target: T8, PRMT5 (Homo sapiens, UniProt O14744); assay: Epigenetics selectivity panel (BPS Bioscience); assay type: biochemical
T8 construct: purchased DiscoverX KINOMEscan (kinases); BPS Bioscience (epigenetic targets)

H187 = assay: Cell proliferation assay (MTS); assay type: cell-based; details: Homo sapiens, NCI-H187; SCLC
KMS28BM = assay: Cell proliferation assay (MTS); assay type: cell-based; details: Homo sapiens, KMS-28BM; MM
Jarid1C = target: T9, Jarid1C (Homo sapiens, UniProt P41229); assay: Epigenetics selectivity panel (BPS Bioscience); assay type: biochemical
T9 construct: purchased DiscoverX KINOMEscan (kinases); BPS Bioscience (epigenetic targets)

U87-MG = assay: Cell proliferation assay (MTS); assay type: cell-based; details: Homo sapiens, U-87 MG; Glioblastoma
Kinetic solubility = assay type: physicochemical; details: aqueous buffer, kinetic from dmso stock, pH 7.4, 50 mM phosphate buffer
Description: This study was conducted at Wuxi (http://www.wuxi.com/) at pH 7.4 (50 mM phosphate buffer). […]
The pH was adjusted to 7.40±0.05 using either 1 M sodium hydroxide or 1 M hydrochloric acid. Test compounds were diluted to 0.2 mM in DMSO and further diluted prior to testing to 10 µM in PBS, pH 7.4 (final 5% DMSO). The assay was performed using a 96-well multiscreen-IP PAMPA plate (Millipore, Cat. # MAIPN4510), whose PVDF membrane was pre-coated with 5 µL of 1% lecithin/dodecane mixture. 150 µL of PBS solution containing the test compounds were added to the donor chamber. Blank PBS (300 µL) was also added to the PTFE acceptor plate, and the donor and acceptor plates were assembled and incubated for 4 h at room temperature with shaking at 150 rpm. […]

ATAD2A = target: T10, ATAD2A (Homo sapiens, UniProt Q6PL18); assay: Epigenetics selectivity panel (BPS Bioscience); assay type: binding
T10 construct: purchased DiscoverX KINOMEscan (kinases); BPS Bioscience (epigenetic targets)

UACC-62 = assay: Cell proliferation assay (MTS); assay type: cell-based; details: Homo sapiens, Melanoma
PRMT6 = target: T11, PRMT6 (Homo sapiens, UniProt Q96LA8); assay: Epigenetics selectivity panel (BPS Bioscience); assay type: biochemical; details: 10 µM
T11 construct: purchased BPS Bioscience (contract panel)
T11 sequence (Q96LA8 whole entry): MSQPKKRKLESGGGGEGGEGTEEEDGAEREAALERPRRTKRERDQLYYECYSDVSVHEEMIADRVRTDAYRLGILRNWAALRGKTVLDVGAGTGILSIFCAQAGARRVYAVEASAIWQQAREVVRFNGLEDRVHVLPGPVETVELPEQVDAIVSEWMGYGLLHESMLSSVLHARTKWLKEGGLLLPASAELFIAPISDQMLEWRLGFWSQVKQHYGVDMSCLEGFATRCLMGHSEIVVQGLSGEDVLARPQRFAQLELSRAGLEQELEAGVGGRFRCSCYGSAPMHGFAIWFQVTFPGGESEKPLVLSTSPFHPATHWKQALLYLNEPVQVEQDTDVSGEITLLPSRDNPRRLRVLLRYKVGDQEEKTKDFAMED

H460 = assay: Cell proliferation assay (MTS); assay type: cell-based; details: Homo sapiens, NCI-H460; NSCLC
HCC95 = assay: Cell proliferation assay (MTS); assay type: cell-based; details: Homo sapiens, SCLC
[1] = Liver microsomal stability; assay type: in vitro ADME; details: human, human liver microsomes; read-out: Liver Microsomal Stability. Estimation T1/2
HL-60 = assay: Cell proliferation assay (MTS); assay type: cell-based; details: Homo sapiens, AML, 48 h
JMJD3 = target: T12, JMJD3 (Homo sapiens, UniProt O15054); assay: Epigenetics selectivity panel (BPS Bioscience); assay type: biochemical
T12 construct: purchased DiscoverX KINOMEscan (kinases); BPS Bioscience (epigenetic targets)

JMJD2C = target: T13, JMJD2C (Homo sapiens, UniProt Q9H3R0); assay: Epigenetics selectivity panel (BPS Bioscience); assay type: biochemical
T13 construct: purchased DiscoverX KINOMEscan (kinases); BPS Bioscience (epigenetic targets)

HCT-116 = assay: Cell proliferation assay (MTS); assay type: cell-based; details: Homo sapiens, Colorectal
LOVO = assay: Cell proliferation assay (MTS); assay type: cell-based; details: Homo sapiens, Colorectal
Human HDAC1 = target: T14, Human HDAC1 (Homo sapiens, UniProt Q13547); assay: HDAC1 enzyme activity assay; assay type: biochemical
T14 construct: purchased DiscoverX KINOMEscan (kinases); BPS Bioscience (epigenetic targets)
T14 sequence (Q13547 whole entry): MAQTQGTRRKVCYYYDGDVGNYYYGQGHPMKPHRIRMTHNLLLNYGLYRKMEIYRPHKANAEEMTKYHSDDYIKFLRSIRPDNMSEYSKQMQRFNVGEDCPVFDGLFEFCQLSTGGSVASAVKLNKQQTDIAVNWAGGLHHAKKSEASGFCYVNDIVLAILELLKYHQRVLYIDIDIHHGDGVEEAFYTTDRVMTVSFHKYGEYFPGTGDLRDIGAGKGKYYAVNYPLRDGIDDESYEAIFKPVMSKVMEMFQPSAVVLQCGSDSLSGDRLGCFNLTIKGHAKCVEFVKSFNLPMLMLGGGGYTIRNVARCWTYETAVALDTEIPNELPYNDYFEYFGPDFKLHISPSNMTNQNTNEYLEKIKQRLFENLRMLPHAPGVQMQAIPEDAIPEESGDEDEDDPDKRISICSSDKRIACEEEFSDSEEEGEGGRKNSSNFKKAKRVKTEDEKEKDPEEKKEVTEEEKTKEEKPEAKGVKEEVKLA

MM1.S = assay: Cell proliferation assay (MTS); assay type: cell-based; details: Homo sapiens
1205-LU = assay: Cell proliferation assay (MTS); assay type: cell-based; details: Homo sapiens, Melanoma
451-LU = assay: Cell proliferation assay (MTS); assay type: cell-based; details: Homo sapiens, Melanoma
RPMI 8226 = assay: Cell proliferation assay (MTS); assay type: cell-based; details: Homo sapiens, MM
A498 = assay: Cell proliferation assay (MTS); assay type: cell-based; details: Homo sapiens, Renal
SK-MEL-103 = assay: Cell proliferation assay (MTS); assay type: cell-based; details: Homo sapiens, Melanoma
OCI-AML-2 = assay: Cell proliferation assay (MTS); assay type: cell-based, human; details: Homo sapiens, OCI-AML2; AML, 48 h; read-out: GI50

T1 sequence (Q9UBN7 whole entry): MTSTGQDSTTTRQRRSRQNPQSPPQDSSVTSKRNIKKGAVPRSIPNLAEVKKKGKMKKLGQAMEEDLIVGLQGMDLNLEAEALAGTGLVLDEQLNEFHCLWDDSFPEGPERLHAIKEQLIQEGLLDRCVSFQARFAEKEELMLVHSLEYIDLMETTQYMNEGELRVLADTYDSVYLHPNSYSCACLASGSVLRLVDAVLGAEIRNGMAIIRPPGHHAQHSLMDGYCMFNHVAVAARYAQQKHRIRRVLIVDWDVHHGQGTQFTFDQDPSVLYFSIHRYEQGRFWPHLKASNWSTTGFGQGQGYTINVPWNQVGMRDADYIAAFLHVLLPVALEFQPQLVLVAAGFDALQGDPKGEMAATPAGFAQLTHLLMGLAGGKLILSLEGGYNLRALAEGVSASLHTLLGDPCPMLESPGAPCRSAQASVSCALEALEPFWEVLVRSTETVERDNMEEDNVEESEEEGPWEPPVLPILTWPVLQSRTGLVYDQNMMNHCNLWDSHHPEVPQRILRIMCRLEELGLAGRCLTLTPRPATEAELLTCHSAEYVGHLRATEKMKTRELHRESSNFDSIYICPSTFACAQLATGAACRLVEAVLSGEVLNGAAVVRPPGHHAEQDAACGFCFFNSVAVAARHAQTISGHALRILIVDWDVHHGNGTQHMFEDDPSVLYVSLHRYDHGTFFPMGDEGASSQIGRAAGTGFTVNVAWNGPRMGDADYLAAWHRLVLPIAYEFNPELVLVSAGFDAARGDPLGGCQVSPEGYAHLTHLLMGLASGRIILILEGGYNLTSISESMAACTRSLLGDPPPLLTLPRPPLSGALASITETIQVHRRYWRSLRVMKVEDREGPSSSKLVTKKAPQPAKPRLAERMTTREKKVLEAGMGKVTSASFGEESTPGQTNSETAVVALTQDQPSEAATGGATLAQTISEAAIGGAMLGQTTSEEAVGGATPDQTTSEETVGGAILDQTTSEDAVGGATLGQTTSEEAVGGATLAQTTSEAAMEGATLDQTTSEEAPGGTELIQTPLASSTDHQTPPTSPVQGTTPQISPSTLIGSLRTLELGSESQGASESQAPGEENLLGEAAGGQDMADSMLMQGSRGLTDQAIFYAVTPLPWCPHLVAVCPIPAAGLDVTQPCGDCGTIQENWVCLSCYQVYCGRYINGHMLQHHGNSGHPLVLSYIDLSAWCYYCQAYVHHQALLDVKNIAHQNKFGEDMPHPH

COc1cc2c(NCC3CCN(C)CC3)cc(-c3ccc(C)o3)nc2cc1OCCCN1CCCC1 [CM-579, 6-methoxy-2-(5-methyl-2-furyl)-N-[(1-methyl-4-piperidyl)methyl]-7-(3-pyrrolidin-1-ylpropoxy)quinolin-4-amine]
inhibition at 10 µM (Human HDAC6): 0%
inhibition at 10 µM (SET7-9): 0%
GI50 (H23): 1140 nM
GI50 697: 4.29 µM
IC50 (DNMT3A): 92 nM
GI50 (PC3): 307 nM
GI50 (PEER): > 10 µM
inhibition at 10 µM (TAF1): 4%
GI50 (DU145): 223 nM
inhibition at 10 µM (JMJD2B): 40%
GI50 (MGH-U3): 141 nM
GI50 (CAKI-2): 304 nM
GI50 (COLO-205): 275 nM
inhibition at 10 µM (EZH2): 0%
inhibition at 10 µM (BRD2(BD1+BD2)): 0%
GI50 (MM1.R): 2110 nM
inhibition at 10 µM (PRMT5): 0%
GI50 (H187): 1970 nM
GI50 (KMS28BM): 7.82 µM
inhibition at 10 µM (Jarid1C): 13%
GI50 (U87-MG): 118 nM
solubility (Kinetic solubility): > 144 µg/mL
inhibition at 10 µM (ATAD2A): 0%
GI50 (UACC-62): 150 nM
inhibition at 10 µM (PRMT6): 40%
GI50 (H460): 4.11 µM
GI50 (HCC95): 613 nM
half-life at 1 µM [1]: 88.8 min
GI50 (HL-60): > 10 µM
inhibition at 10 µM (JMJD3): 3%
inhibition at 10 µM (JMJD2C): 13%
GI50 (HCT-116): 176 nM
GI50 (LOVO): 297 nM
inhibition at 10 µM (Human HDAC1): 0%
GI50 (MM1.S): 3.79 µM
GI50 (1205-LU): 20 nM
GI50 (451-LU): 69 nM
GI50 (RPMI 8226): 5.42 µM
GI50 (A498): 441 nM
GI50 (SK-MEL-103): 29 nM
GI50 (OCI-AML-2): 490 nM
